Experimental data as given in patent US20240158446A1, “CYCLIC COMPOUND HAVING SELECTIVE INHIBITORY ACTION ON KRAS OVER HRAS AND NRAS” (CHUGAI SEIYAKU KABUSHIKI KAISHA, priority 2021, published 2024).

What was measured:
[1] = molecular target: GDP-bound HRAS wild-type protein (Homo sapiens, UniProt P01112); experiment: Binding to HRAS by surface plasmon resonance (SPR), Single Cycle Kinetics; conditions: for HRAS/KRAS (ratio of KD value with respect to GDP-bound HRAS wild-type protein to KD value with respect to KRAS): SPR KD ratio HRAS/KRAS, class symbols
[2] = molecular target: GDP-bound NRAS wild-type protein (Homo sapiens, UniProt P01111); experiment: Binding to NRAS by surface plasmon resonance (SPR), Single Cycle Kinetics; conditions: for NRAS/KRAS (ratio of KD value with respect to GDP-bound NRAS wild-type protein to KD value with respect to KRAS): SPR KD ratio NRAS/KRAS, class symbols
[3] = SPR, GDP-bound HRAS wild-type protein vs GDP-bound KRAS wild-type protein
[4] = SPR, GDP-bound NRAS wild-type protein vs GDP-bound KRAS wild-type protein

GDP-bound NRAS wild-type protein, sequence (P01111 whole entry): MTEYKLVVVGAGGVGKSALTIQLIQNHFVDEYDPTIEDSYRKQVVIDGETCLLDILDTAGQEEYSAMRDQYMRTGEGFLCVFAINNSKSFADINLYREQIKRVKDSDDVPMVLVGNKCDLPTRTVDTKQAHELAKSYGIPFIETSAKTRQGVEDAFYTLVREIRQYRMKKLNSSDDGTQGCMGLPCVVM
GDP-bound HRAS wild-type protein, sequence (P01112 whole entry): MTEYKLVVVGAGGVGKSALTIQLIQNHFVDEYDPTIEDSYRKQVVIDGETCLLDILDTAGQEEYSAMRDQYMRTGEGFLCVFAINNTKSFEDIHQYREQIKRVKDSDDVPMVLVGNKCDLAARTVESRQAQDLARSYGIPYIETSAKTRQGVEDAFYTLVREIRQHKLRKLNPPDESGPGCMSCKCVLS

| SMILES | HRAS/KRAS (ratio of KD value for HRAS to KD value for KRAS) [1, 3] | NRAS/KRAS (ratio of KD value for NRAS to KD value for KRAS) [2, 4] | also measured |
| --- | --- | --- | --- |
| CCC[C@H]1C(=O)N[C@@H](C2CCOCC2)C(=O)N(C)CC(=O)N(C)[C@H]2C/C=C\CCN(C2=O)[C@@H](Cc2ccc(C)cc2)C(=O)N(C)CC(=O)N[C@@H](CCc2ccc(C(F)(F)F)c(Cl)c2)C(=O)N2C[C@H](OCC)C[C@H]2C(=O)NC2(CC(C)(C)C2)C(=O)N(C)[C@@H](C2CCCC2)C(=O)N(C)[C@H](C(=O)N(C)C)CC(=O)N1C [PP3002] | A (a compound having 10 or more and less than 20 is denoted as A) | A (a compound having 10 or more and less than 20 is denoted as A) |  |
| CCCN1C(=O)CN(C)C(=O)CN(C)C(=O)[C@H]([C@@H](C)CC)NC(=O)[C@@H]2COCC=CC[C@@](C)(NC(=O)[C@@H]3C[C@@H](OCC)CN3C(=O)[C@H](CCc3cc(F)c(C(F)(F)F)c(F)c3)NC(=O)CN(C)C(=O)[C@@H]1Cc1ccc(C(F)(F)F)cc1)C(=O)N(C)[C@@H](C1CCCC1)C(=O)N(C)[C@H](C(=O)N1CCOCC1)CC(=O)N2C (stereo in doubt) [PP0903] | C (A compound having a KD ratio of 0.1 or more and less than 3 is denoted as C) | B (a compound having 3 or more and less than 10 is denoted as B) |  |
| C#CC[C@H]1C(=O)N[C@@H]([C@@H](C)CC)C(=O)N(C)CC(=O)N(C)[C@H]2C/C=C\CCN(C2=O)[C@@H](Cc2ccc(C)cc2)C(=O)N(C)CC(=O)N[C@@H](CCc2cc(F)c(C(F)(F)F)c(F)c2)C(=O)N2CC3(CC3)C[C@H]2C(=O)NC2(CC(C)(C)C2)C(=O)N(C)[C@@H](C2CCCC2)C(=O)N(C)[C@H](C(=O)N(C)C)CC(=O)N1C [PP2978] | A (a compound having 10 or more and less than 20 is denoted as A) | A (a compound having 10 or more and less than 20 is denoted as A) |  |
| C=CCN1CC(=O)N(C)[C@H]2C/C=C\CCN(C2=O)[C@@H](Cc2ccc(C)cc2)C(=O)N(C)CC(=O)N[C@@H](CCc2ccc(C(F)(F)F)c(OC)c2)C(=O)N2C[C@H](OCC)C[C@H]2C(=O)NC2(CC(C)(C)C2)C(=O)N(C)[C@@H](C2CCCC2)C(=O)N(C)[C@H](C(=O)N(C)C)CC(=O)N(C)[C@@H](CC(C)C)C(=O)N[C@@H]([C@@H](C)CC)C1=O [PP2058] | A (a compound having 10 or more and less than 20 is denoted as A) | A (a compound having 10 or more and less than 20 is denoted as A) |  |
| CCO[C@@H]1C[C@H]2C(=O)NC3(CCC3)C(=O)N(C)[C@@H](C(CC)CC)C(=O)N(C)[C@H](C(=O)N(C)C)CC(=O)N(C)[C@@H](CC3CC3)C(=O)N[C@@H]([C@@H](C)CC)C(=O)N(C)CC(=O)N(C)[C@H]3C/C=C\CCN(C3=O)[C@@H](Cc3ccc(F)cc3C)C(=O)N(C)CC(=O)N[C@@H](CCc3cc(F)c(C(F)(F)F)c(F)c3)C(=O)N2C1 [PP1514] |  |  | HRAS/KRAS (ratio of KD value for HRAS to KD value for KRAS) ([1]; SPR, GDP-bound HRAS wild-type protein vs GDP-bound KRAS wild-type protein, KD ratio class): A (a compound having 10 or more and less than 20 is denoted as A); NRAS/KRAS (ratio of KD value for NRAS to KD value for KRAS) ([2]; SPR, GDP-bound NRAS wild-type protein vs GDP-bound KRAS wild-type protein, KD ratio class): A (a compound having 10 or more and less than 20 is denoted as A) |
| CCC[C@H]1C(=O)N[C@@H]([C@@H](C)CC)C(=O)N(C)CC(=O)N(C)[C@H]2C/C=C\CCN(C2=O)[C@@H](Cc2ccc(C(F)(F)F)cc2)C(=O)N(C)CC(=O)N[C@@H](CCc2cc(Cl)c(C(F)F)c(Cl)c2)C(=O)N2C[C@H](OCC)C[C@H]2C(=O)NC2(CC(C)(C)C2)C(=O)N(C)[C@@H](C2CCCC2)C(=O)N(C)[C@H](C(=O)N(C)C)CC(=O)N1C [PP2865] |  |  | HRAS/KRAS (ratio of KD value with respect to GDP-bound HRAS wild-type protein to KD value with respect to KRAS) [1]: A (a compound having 10 or more and less than 20 is denoted as A); NRAS/KRAS (ratio of KD value with respect to GDP-bound NRAS wild-type protein to KD value with respect to KRAS) [2]: A (a compound having 10 or more and less than 20 is denoted as A) |
| CCCOC[C@H]1C(=O)N[C@@H]([C@@H](C)CC)C(=O)N(C)CC(=O)N(C)[C@H]2C/C=C\CCN(C2=O)[C@@H](Cc2ccc(C)cc2)C(=O)N(C)CC(=O)N[C@@H](CCc2cc(F)c(C(F)(F)F)c(F)c2)C(=O)N2C[C@H](CCC)C[C@H]2C(=O)NC2(CC(C)(C)C2)C(=O)N(C)[C@@H](C2CCCC2)C(=O)N(C)[C@H](C(=O)N(C)C)CC(=O)N1C [PP2203] | A (a compound having 10 or more and less than 20 is denoted as A) | A (a compound having 10 or more and less than 20 is denoted as A) |  |
| CC[C@H](C)[C@@H]1NC(=O)[C@H](CC)N(C)C(=O)C[C@@H](C(=O)N(C)C)N(C)C(=O)[C@H](C2CCCC2)N(C)C(=O)C2(CCC2)NC(=O)[C@@H]2CCN2C(=O)[C@H](CCc2cc(F)c(C(F)(F)F)c(F)c2)NC(=O)CN(C)C(=O)[C@H](Cc2ccc(C(F)(F)F)cc2)N2CCCCC[C@@H](C2=O)N(C)C(=O)CN(C)C1=O [PP0654] |  |  | HRAS/KRAS (ratio of KD value with respect to HRAS to KD value with respect to KRAS) [1, 3]: B (a compound having 3 or more and less than 10 is denoted as B); NRAS/KRAS (ratio of KD value with respect to NRAS to KD value with respect to KRAS) [2, 4]: B (a compound having 3 or more and less than 10 is denoted as B) |
| CCOC[C@H]1C(=O)N[C@@H]([C@@H](C)CC)C(=O)N(C2CC2)CC(=O)N(C)[C@H]2C/C=C\CCN(C2=O)[C@@H](CC2CCC(F)(F)CC2)C(=O)N(C)CC(=O)N[C@@H](CCc2ccc(C(F)(F)F)c(OC)c2)C(=O)N2C[C@H](OCC)C[C@H]2C(=O)N(C)C2(CCC2)C(=O)N(C)[C@@H](C(CC)CC)C(=O)N(C)[C@H](C(=O)N(C)C)CC(=O)N1C [PP2351] | A (a compound having 10 or more and less than 20 is denoted as A) | A (a compound having 10 or more and less than 20 is denoted as A) |  |
| CCCO[C@@H]1CCN2C(=O)[C@H](CCc3cc(F)c(C(F)(F)F)c(F)c3)NC(=O)CN(C)C(=O)[C@H](Cc3ccc(C(F)(F)F)cc3)N3CCCCC[C@@H](C3=O)N(C)C(=O)CN(C)C(=O)[C@H]([C@@H](C)CC)NC(=O)[C@H](CC(C)C)N(C)C(=O)C[C@@H](C(=O)N3CCOCC3)N(C)C(=O)[C@H](C3CCCC3)N(C)C(=O)C3(CCC3)NC(=O)[C@H]12 [PP1083] | B (a compound having 3 or more and less than 10 is denoted as B) | B (a compound having 3 or more and less than 10 is denoted as B) |  |
| CCC[C@@H]1C[C@H]2C(=O)NC3(CCCC3)C(=O)N(C)[C@@H](C3CCCC3)C(=O)N(C)[C@H](C(=O)N(C)C)CC(=O)N(C)[C@@H](CC)C(=O)N[C@@H]([C@@H](C)CC)C(=O)N(C)CC(=O)N(C)[C@H]3C/C=C\CCN(C3=O)[C@@H](Cc3ccc(C)cc3)C(=O)N(C)CC(=O)N[C@@H](CCc3cc(F)c(C(F)(F)F)c(F)c3)C(=O)N2C1 [PP2227] | A (a compound having 10 or more and less than 20 is denoted as A) | A (a compound having 10 or more and less than 20 is denoted as A) |  |
| CCO[C@@H]1C[C@H]2C(=O)NC3(CCC3)C(=O)N(C)[C@@H](C3CCCC3)C(=O)N(C)[C@H](C(=O)N(C)CC)CC(=O)N(C)[C@@H](CC(C)C)C(=O)N[C@@H]([C@@H](C)CC)C(=O)N(C)CC(=O)N(C)[C@H]3C/C=C\CCN(C3=O)[C@@H](Cc3ccc(C(F)(F)F)cc3)C(=O)N(C)CC(=O)N[C@@H](CCc3ccc(C(F)(F)F)c(Cl)c3)C(=O)N2C1 [PP2847] |  |  | HRAS/KRAS (ratio of KD value with respect to GDP-bound HRAS wild-type protein to KD value with respect to KRAS) [1]: A (a compound having 10 or more and less than 20 is denoted as A); NRAS/KRAS (ratio of KD value with respect to GDP-bound NRAS wild-type protein to KD value with respect to KRAS) [2]: A (a compound having 10 or more and less than 20 is denoted as A) |
